The conditions of series [1]: rat, plasma.
Series [2] is described as follows: In vitro activity of free-thiol calcium modulating peptide compared with KAI-1455. The settings on record: tested in vitro, relative to KAI-1455.
For a further series, the system named is anesthetized rats. The experiment in a line: 3 hour infusion study of KAI-1633 in anesthetized rats, with steady state plasma concentration by ELISA (Example 14). The series is classed as in vivo, rat. The note with it: 9 mg/kg iv infusion for 3 hours. An excerpt: The study was designed to determine the contribution of the disulfide bond and/or cysteine residue on the calcium modulator peptide to the reductions in total calcium and plasma PTH.
Control animals (n=4) were infused with saline.
(In general: In an ELISA, binding on a coated surface is turned into a signal by an enzyme label.)

This is an account of results in patent US8987200B2, “Polycationic calcium modulator peptides for the treatment of hyperparathyroidism and hypercalcemic disorders” (KAI Pharmaceuticals, Inc., priority 2006, dated 2015).

No end group written: not given here.

A word on the half-life: it is how long it takes for the measured level to halve. A high value points to slow decline.

Turning to `CC(C)C[C@H](NC(=O)[C@H](CO)NC(=O)CNC(=O)[C@H](CC(C)C)NC(=O)[C@H](CCC(=O)O)NC(=O)[C@H](Cc1ccc(O)cc1)NC(=O)[C@H](CO)NC(=O)[C@H](CC(N)=O)NC(=O)[C@H](Cc1ccccc1)NC(=O)[C@H](CO)NC(=O)[C@@H](N)CSSC[C@H](N)C(=O)N[C@@H](Cc1ccc(O)cc1)C(=O)NCC(=O)N[C@@H](CCCNC(=N)N)C(=O)N[C@@H](CCCCN)C(=O)N[C@@H](CCCCN)C(=O)N[C@@H](CCCNC(=N)N)C(=O)N[C@@H](CCCNC(=N)N)C(=O)N[C@@H](CCC(N)=O)C(=O)N[C@@H](CCCNC(=N)N)C(=O)N[C@@H](CCCNC(=N)N)C(=O)N[C@@H](CCCNC(=N)N)C(=O)O)C(=O)O` [KP-9803], the half-life in series [1] is roughly 10 min. Take “Ac-CYGRKKRRQRRR-NH2 [SEQ ID NO:5, capped TAT-derived peptide having an N-terminal cysteine residue containing a free thiol]”: in series [2], the Activity in vitro entry was “comparable to KAI-1455”. As for EAVSLKPTGGYGRKKRRQRRR-NH2 [KAI-1633], in the series on anesthetized rats, the “Plasma PTH levels” value is recorded as “did not show a reduction” and the Total calcium entry was “did not show a reduction”.

The compound `CC[C@H](C)[C@H](NC(=O)[C@@H]1CCCN1C(=O)[C@H](C)NC(=O)[C@H](CC(=O)O)NC(=O)[C@H](Cc1c[nH]cn1)NC(=O)[C@@H](N)CSSC[C@H](N)C(=O)N[C@@H](Cc1ccc(O)cc1)C(=O)NCC(=O)N[C@@H](CCCNC(=N)N)C(=O)N[C@@H](CCCCN)C(=O)N[C@@H](CCCCN)C(=O)N[C@@H](CCCNC(=N)N)C(=O)N[C@@H](CCCNC(=N)N)C(=O)N[C@@H](CCC(N)=O)C(=O)N[C@@H](CCCNC(=N)N)C(=O)N[C@@H](CCCNC(=N)N)C(=O)N[C@@H](CCCNC(=N)N)C(=O)O)C(=O)NCC(=O)N[C@@H](Cc1ccc(O)cc1)C(=O)N[C@@H](CC(=O)O)C(=O)O` [KP-9706] came in with a half-life in series [1] of roughly 5 min.
